Experimental data taken from patent US7148232B2, “Oxazolo, thiazolo and selenazolo [4,5-c]-quinolin-4-amines and analogs thereof” (3M Innovative Properties Company, priority 1998, dated 2006).

Tests used:
interferon (α) [1] = test: Interferon (α) induction in human cells (in vitro human blood cell system, interferon by bioassay); assay type: cell-based; conditions: human PBM's, 48 hours
Protocol: An in vitro human blood cell system was used to assess interferon induction by compounds of the invention. Activity is based on the measurement of interferon secreted into culture media. Interferon is measured by bioassay.
Whole blood is collected by venipuncture into EDTA vacutainer tubes. Peripheral blood mononuclear cells (PBM's) are separated from whole blood by using either LeucoPREP™ Brand Cell Separation Tubes (available from Becton Dickinson) or Ficoll-Paque® solution (available from Pharmacia LKB Biotechnology Inc, Piscataway, N.J.). […] 200 μL portions of PBM suspension are added to 96 well (flat bottom) sterile tissue culture plates (Becton Dickinson Labware, Lincoln Park, N.J.).
The compounds are solubilized in ethanol, dimethyl sulfoxide or tissue culture water then diluted with tissue culture water, 0.01N sodium hydroxide or 0.01N hydrochloric acid (The choice of solvent will depend on the chemical characteristics of the compound being tested.). Ethanol or DMSO concentration should not exceed a final concentration of 1% for addition to the culture wells. Compounds are initially tested in a concentration range of from about 0.1 μg/mL to about 5 μg/mL. Compounds which show induction at a concentration of 0.5 μg/mL are then tested in a wider concentration range.
The solution of test compound is added in a volume (less than or equal to 50 μL) to the wells containing 200 μL of diluted whole blood or of PBM's in media. Solvent and/or media is added to control wells (wells with no test compound) and as needed to adjust the final volume of each well to 250 μL. The plates are covered with plastic lids, vortexed gently and then incubated for 48 hours at 37° C. with a 5% carbon dioxide atmosphere.
Following incubation, the plates are covered with parafilm and then centrifuged at 1000 rpm for 10 to 15 minutes at 4° C. in a Damon IEC Model CRU-5000 centrifuge. Media (about 200 μL) is removed from 4 to 8 wells and pooled into 2 mL sterile freezing vials. Samples are maintained at −70° C. until analysis.
Interferon is determined by bioassay using A549 human lung carcinoma cells challenged with encephalomyocarditis. The details of the bioassay method have been described by G. L. Brennan and L. H. Kronenberg in “Automated Bioassay of Interferons in Micro-test Plates”, Biotechniques, June/Jul. […] The incubated cells are infected with an inoculum of encephalomyocarditis virus. The infected cells are incubated for an additional period at 37° C. before quantifying for viral cytopathic effect. The viral cytopathic effect is quantified by staining followed by spectrophotometric absorbance measurements. Results are expressed as alpha reference units/mL based on the value obtained for NIH HU IF-L standard.
Compounds of the invention were tested for their ability to induce interferon in human cells using the test method described above.

interferon (α) [2] = test: Cytokine induction in human cells: interferon (α) secreted by PBMCs (ELISA or bioassay); assay type: cell-based; conditions: 18 to 24 hours
Protocol: (§1) An in vitro human blood cell system was used to assess cytokine induction by compounds of the invention.
(§2) Whole blood is collected by venipuncture into EDTA vacutainer tubes from healthy human donors. […] The PBMC suspension is added to 48 well flat bottom sterile tissue culture plates (Costar, Cambridge, Mass. or Becton Dickinson Labware, Lincoln Park, N.J.) containing an equal volume of RPMI complete media containing test compound.
(§3) The compounds are solubilized in dimethyl sulfoxide (DMSO). The DMSO concentration should not exceed a final concentration of 1% for addition to the culture wells.
(§4) The solution of test compound is added at 60 μM to the first well containing RPMI complete and serial 3 fold dilutions are made. The PBMC suspension is then added to the wells in an equal volume, bringing the test compound concentrations to the desired range (0.12 to 30 μM). The final concentration of PBMC suspension is 1.5–2×10^6 cells/mL. The plates are covered with sterile plastic lids, mixed gently and then incubated for 18 to 24 hours at 37° C. in a 5% carbon dioxide atmosphere.
(§5) Following incubation the plates are centrifuged for 5–10 minutes at 1000 rpm (˜200×g) at 4° C. The cell culture supernatant is removed with a sterile polypropylene pipet and transferred to sterile polypropylene tubes. Samples are maintained at −30 to −70° C. until analysis. The samples are analyzed for interferon (α) by either ELISA or bioassay and for tumor necrosis factor (α) by ELISA
Interferon is determined by bioassay using A549 human lung carcinoma cells challenged with encephalomyocarditis. […] Briefly stated the method is as follows: A549 cells are incubated with dilutions of samples or a standard interferon at 37° C. for 24 hours. The incubated cells are then infected with an inoculum of encephalomyocarditis virus. The infected cells are incubated for an additional 24 hours at 37° C. before evaluating for viral cytopathic effect. The viral cytopathic effect is quantified by staining with crystal violet followed by visual scoring of the plates. Results are expressed as alpha reference units/mL based on the value obtained for NIH Human Leukocyte IFN standard.
Interferon (α) concentration is determined by ELISA using a Human Multi-Species kit from PBL Biomedical Laboratories, New Brunswick, N.J. according to the manufacturer's instructions.

[3] = tested on: tumor necrosis factor (α); test: Cytokine induction in human cells: tumor necrosis factor (α) secreted by PBMCs (ELISA); assay type: cell-based; conditions: 18 to 24 hours
Protocol: as §1, §2, §3, §4, §5
Tumor necrosis factor (α) (TNF) concentration is determined using ELISA kits available from Genzyme, Cambridge, Mass.; R&D Systems, Minneapolis, Minn.; or Pharmingen, San Diego, Calif. according to the manufacturer's instructions.

Structure (SMILES) | Interferon (α) Induction in Human Cells (interferon (α) [1]; Dose Concentration 0.10 μg/mL) | Interferon (α) Induction in Human Cells (interferon (α) [1]; Dose Concentration 0.50 μg/mL) | Interferon (α) Induction in Human Cells (interferon (α) [1]; Dose Concentration 1.0 μg/mL) | Interferon (α) Induction in Human Cells (interferon (α) [1]; Dose Concentration 5.0 μg/mL) | Interferon (α) Induction in Human Cells (interferon (α) [1]; Dose Concentration 10.0 μg/mL) | Interferon (α) Induction in Human Cells (interferon (α) [1]; Dose Concentration 25.0 μg/mL) | Interferon (α) Induction in Human Cells (interferon (α) [1]; Dose Concentration 50.0 μg/mL) | melting point | Interferon (α) Induction (interferon (α) [2]; Dose Concentration 0.12 μM) | Interferon (α) Induction (interferon (α) [2]; Dose Concentration 0.37 μM) | Interferon (α) Induction (interferon (α) [2]; Dose Concentration 1.11 μM) | Interferon (α) Induction (interferon (α) [2]; Dose Concentration 3.33 μM) | Interferon (α) Induction (interferon (α) [2]; Dose Concentration 10 μM) | Interferon (α) Induction (interferon (α) [2]; Dose Concentration 30 μM) | Tumor Necrosis Factor Induction ([3]; Dose Concentration 0.12 μM) | Tumor Necrosis Factor Induction ([3]; Dose Concentration 0.37 μM) | Tumor Necrosis Factor Induction ([3]; Dose Concentration 1.11 μM) | Tumor Necrosis Factor Induction ([3]; Dose Concentration 3.33 μM) | Tumor Necrosis Factor Induction ([3]; Dose Concentration 10 μM) | Tumor Necrosis Factor Induction ([3]; Dose Concentration 30 μM) | other results
CCCc1nc2c(N)nc3cc(C(F)(F)F)ccc3c2s1 [Example 50, 2-Propyl-7-(trifluoromethyl)thiazolo[4,5-c]quinolin-4-amine] | − | + | + | + | + | + | + | 215 to 216 °C |  |  |  |  |  |  |  |  |  |  |  |  | 
Nc1nc2ccccc2c2sc(N3CCCC3)nc12 [Example 54, 2-(1-Pyrrolidino)thiazolo[4,5-c]quinolin-4-amine] | − | − | − | − | − | + | + | 259 to 261 °C |  |  |  |  |  |  |  |  |  |  |  |  | Interferon (α) Induction in Human Cells (interferon (α) [1]; Dose Concentration 0.01 μg/mL): −; Interferon (α) Induction in Human Cells (interferon (α) [1]; Dose Concentration 0.05 μg/mL): −
CCCCc1nc2c(N)nc3cccnc3c2s1 [Example 58, 2-Butylthiazolo[4,5-c][1,5]naphthyridin-4-amine] |  |  |  |  |  |  |  | 136 to 138 °C | − | − | − | − | ± | ± | − | + | + | + | + | + | 
CCCc1nc2c(N)nc3cccnc3c2s1 [Example 60, 2-Propylthiazolo[4,5-c][1,5]naphthyridin-4-amine] |  |  |  |  |  |  |  | 135 to 136 °C | − | − | − | − | − | − | − | ± | + | + | + | + | 
CCCc1nc2c(N)nc3cc(Cl)ccc3c2s1 [Example 63, 7-Chloro-2-propylthiazolo[4,5-c]quinolin-4-amine] |  |  |  |  |  |  |  | 159 to 160 °C | − | − | + | + | + | − | + | + | + | + | + | + | 
CCCc1nc2c(N)nc3cc(OC)ccc3c2s1 [Example 64, 7-Methoxy-2-propylthiazolo[4,5-c]quinolin-4-amine] |  |  |  |  |  |  |  | 152 to 154 °C | − | + | + | + | + | + | + | + | + | + | + | + | 
